In patent JP2009062322A, “肝実質細胞再生促進剤” (Minophagen Pharmaceutical Co Ltd, priority 2007, dated 2009):

Test system: primary cultured hepatic parenchymal cells (初代培養肝実質細胞)
Experiment: Proliferation of primary cultured rat hepatic parenchymal cells: DNA synthesis (3H-thymidine incorporation) and number of nuclei
Conditions: for EC50: Rattus norvegicus; for proliferation-promoting effect: compound alone, low-density culture, 4 h, result in words

| Structure (SMILES) | EC50 [nM] | proliferation-promoting effect | proliferation-promoting effect relative to glycyrrhetinic acid (by EC50) (fold stronger than glycyrrhetinic acid (グリチルレチン酸), by EC50 value) |
| --- | --- | --- | --- |
| CC1(C)[C@@H](O)CC[C@]2(C)[C@H]3C(=O)C=C4[C@@H]5C[C@@](C)(C(=O)O)CC[C@]5(C)CC[C@@]4(C)[C@]3(C)CC[C@@H]12 [グリチルレチン酸, reference compound] | 5 | 用量依存的に促進効果を示した | – |
| C[C@]1(C(=O)O)CC[C@]2(C)CC[C@]3(C)C(=CC[C@@H]4[C@@]5(C)CC[C@H](O)[C@](C)(CO)[C@@H]5CC[C@]43C)[C@@H]2C1 [化合物(12)] | 4 | 用量依存的に促進効果を示した | – |
| CC1(C)[C@@H](O)CC[C@]2(C)[C@H]3CC=C4[C@@H]5C[C@@](C)(C(=O)O)CC[C@]5(C)CC[C@@]4(C)[C@]3(C)CC[C@@H]12 [化合物(11), 11−デオキソグリチルレチン酸] | 0.04 | 用量依存的に促進効果を示した | ~100 倍 (fold) |
